#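 Method: 48-hour compound exposure of cells in 96-well plates, five concentrations, linear interpolation of endpoints. GI50 is the concentration that inhibits growth by half. TGI is the concentration that stops growth completely.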
# Tests used:
# Test in all cases: NCI tumour cell line growth inhibition, 48 h
# [1] = tested on: HCT-116 colon
# [2] = tested on: HCT-15 colon
# [3] = tested on: OVCAR-5 ovarian
# [4] = tested on: HOP-62 NSCLC
# [5] = tested on: SK-MEL-5 melanoma
# [6] = tested on: OVCAR-4 ovarian
# [7] = tested on: HL-60(TB) leukemia
# [8] = tested on: 786-0 renal
# [9] = tested on: SF-539 CNS
# [10] = tested on: SN12C renal
# [11] = tested on: HOP-92 NSCLC
# [12] = tested on: T-47D breast
# [13] = tested on: SF-268 CNS
# [14] = tested on: NCI-H522 lung
# [15] = tested on: LOX IMVI melanoma
# [16] = tested on: RPMI-8226 leukemia
# [17] = tested on: PC-3 prostate
# [18] = tested on: U251 CNS
# [19] = tested on: SK-MEL-28 melanoma
# [20] = tested on: HS 578T breast
# [21] = tested on: UACC-62 melanoma
# [22] = tested on: MDA-MB-468 breast
# [23] = tested on: A549 NSCLC
# [24] = tested on: OVCAR-3 ovarian
# [25] = tested on: ACHN renal
# [26] = tested on: SR leukemia
# [27] = tested on: CCRF-CEM leukemia
# [28] = tested on: M14 melanoma
# [29] = tested on: KM12 colon
# [30] = tested on: CAKI-1 renal
# [31] = tested on: UACC-257 melanoma
# [32] = tested on: HT29 colon
# [33] = tested on: UO-31 renal
# [34] = tested on: A498 renal
# [35] = tested on: COLO 205 colon
# [36] = tested on: NCI-H226 lung
# [37] = tested on: OVCAR-8 ovarian
# [38] = tested on: SF-295 CNS
# [39] = tested on: MOLT-4 leukemia
# [40] = tested on: DU-145 prostate
# [41] = tested on: HCC-2998 colon
# [42] = tested on: IGROV1 ovarian
# [43] = tested on: BT-549 breast
# [44] = tested on: SNB-75 CNS
# [45] = tested on: K-562 leukemia
# [46] = tested on: MDA-MB-435
# [47] = tested on: NCI-H460 lung
# [48] = tested on: SK-OV-3 ovarian
# [49] = tested on: MALME-3M melanoma
# [50] = tested on: NCI-H23 lung
# [51] = tested on: MCF7 breast
# [52] = tested on: SW-620 colon
# [53] = tested on: TK-10 renal
# [54] = tested on: EKVX NSCLC
# [55] = tested on: RXF 393 renal
# [56] = tested on: SK-MEL-2 melanoma
# [57] = tested on: MDA-MB-231 breast
compound,measurement,setting,value
O=C(/C=C/c1ccc(F)cc1)c1nc2ccccc2n1Cc1ccc(Br)cc1,GI50,[1],1.96 µM
same,TGI,[1],4.26 µM
same,GI50,[2],1.67 µM
same,TGI,[2],3.46 µM
same,GI50,[3],1.94 µM
same,TGI,[3],4.16 µM
same,GI50,[4],2.1 µM
same,TGI,[4],4.87 µM
same,GI50,[5],2.36 µM
same,TGI,[5],6.69 µM
same,GI50,[6],4.3 µM
same,TGI,[6],51.4 µM
same,GI50,[7],2.02 µM
same,TGI,[7],6.3 µM
same,GI50,[8],1.93 µM
same,TGI,[8],3.89 µM
same,GI50,[9],1.91 µM
same,TGI,[9],3.8 µM
same,GI50,[10],3.02 µM
same,TGI,[10],11.1 µM
same,GI50,[11],2.03 µM
same,TGI,[11],12.1 µM
same,GI50,[12],2.68 µM
same,TGI,[12],11.3 µM
same,GI50,[13],3.58 µM
same,TGI,[13],67.8 µM
same,GI50,[14],2.17 µM
same,TGI,[14],4.68 µM
same,GI50,[15],1.59 µM
same,TGI,[15],3.06 µM
same,GI50,[16],2.29 µM
same,TGI,[16],6.87 µM
same,GI50,[17],3.37 µM
same,TGI,[17],13.7 µM
same,GI50,[18],1.54 µM
same,TGI,[18],2.99 µM
same,GI50,[19],1.85 µM
same,TGI,[19],3.77 µM
same,GI50,[20],3.71 µM
same,TGI,[20],43.3 µM
same,GI50,[21],1.74 µM
same,TGI,[21],4.3 µM
same,GI50,[22],1.9 µM
same,TGI,[22],4.12 µM
same,GI50,[23],3.93 µM
same,TGI,[23],35.3 µM
same,GI50,[24],1.76 µM
same,TGI,[24],3.42 µM
same,GI50,[25],2.8 µM
same,TGI,[25],8.7 µM
same,GI50,[26],2.79 µM
same,TGI,[26],> 100 µM
same,GI50,[27],1.62 µM
same,TGI,[27],8.35 µM
same,GI50,[28],2.33 µM
same,TGI,[28],6.43 µM
same,GI50,[29],2.13 µM
same,TGI,[29],5.22 µM
same,GI50,[30],1.97 µM
same,TGI,[30],5.74 µM
same,GI50,[31],3.2 µM
same,TGI,[31],14.7 µM
same,GI50,[32],2.37 µM
same,TGI,[32],4.93 µM
same,GI50,[33],1.42 µM
same,TGI,[33],2.93 µM
same,GI50,[34],17.2 µM
same,TGI,[34],32.1 µM
same,GI50,[35],2.35 µM
same,TGI,[35],5.55 µM
same,GI50,[36],2.96 µM
same,TGI,[36],13.1 µM
same,GI50,[37],2.26 µM
same,TGI,[37],5.51 µM
same,GI50,[38],2.14 µM
same,TGI,[38],5.29 µM
same,GI50,[39],2.41 µM
same,TGI,[39],8.96 µM
same,GI50,[40],3.47 µM
same,TGI,[40],26 µM
same,GI50,[41],1.81 µM
same,TGI,[41],3.36 µM
same,GI50,[42],2.31 µM
same,TGI,[42],5.81 µM
same,GI50,[43],2.24 µM
same,TGI,[43],5.81 µM
same,GI50,[44],1.2 µM
same,TGI,[44],12.2 µM
same,GI50,[45],2.84 µM
same,TGI,[45],> 100 µM
same,GI50,[46],1.85 µM
same,TGI,[46],4.19 µM
same,GI50,[47],1.89 µM
same,TGI,[47],4 µM
same,GI50,[48],10.5 µM
same,TGI,[48],> 100 µM
same,GI50,[49],1.83 µM
same,TGI,[49],4.17 µM
same,GI50,[50],1.95 µM
same,TGI,[50],4.37 µM
same,GI50,[51],1.72 µM
same,TGI,[51],9.27 µM
same,GI50,[52],2.14 µM
same,TGI,[52],4.44 µM
same,GI50,[53],2.73 µM
same,TGI,[53],8.11 µM
same,GI50,[54],2.62 µM
same,TGI,[54],7.78 µM
same,GI50,[55],1.48 µM
same,TGI,[55],2.89 µM
same,GI50,[56],2.12 µM
same,TGI,[56],4.74 µM
same,GI50,[57],2.1 µM
same,TGI,[57],4.66 µM
